Measurements from article PMC10364322, “Evaluation of chronic drug-induced electrophysiological and cytotoxic effects using human-induced pluripotent stem cell-derived cardiomyocytes (hiPSC-CMs)” (Frontiers in Pharmacology, 2023).
Like-named read-outs stand apart in the source and are kept apart here.

What was measured:
[1] = test system: hiPSC-CMs (iCell-Cardiomyocytes^2); experiment: MEA impedance (cytotoxicity readout) in hiPSC-CMs
Protocol: (§1) Cells were seeded according to the instructions of the cell provider, in fibronectin-coated 48-well MEA plates (Axion Cytoview Plates, M768-tMEA-48B) at a density suited to form a monolayer (i.e., 50 K/well) and maintained in culture in a stage incubator (37°C, 5% CO2).
(§2) At least 4 h before the beginning of the baseline measurements, a full medium exchange was performed (to a final volume of 400 µL per well). Neat compounds were dissolved in 100% DMSO at a stock concentration 1000-fold the highest target concentration. […] Afterwards, these stock solutions were diluted with Maintenance medium (CDi), to 10-fold the intended concentration. The final DMSO concentration in test solutions and vehicle control was 0.1%.
(§3) Spontaneous electrical activity was recorded in hiPSC-CMs monolayers as field potentials using the Maestro Pro MEA instrument (Axion Biosystems, Atlanta, GA, United States), which allows the maintenance of accurate temperature and CO2 levels (37°C, 5% CO2). After the plate was placed in the Maestro Pro and allowed to equilibrate for about 10 min, baseline acquisition of field potential and impedance signals was initiated and lasted for 5 min each. […] As impedance measures resistance of an applied alternating current through the hiPSC-CMs monolayer, a reduction in the attachment of hiPSC-CMs to the bottom of the well due to cell death or changes in the monolayer morphology, causes a drop in the impedance signal.
(§4) After the acquisition of all timepoint measurements, raw data were loaded into the data analysis software Axion Cardiac Analysis Tool (V.3.2.3). […] A.csv file containing information on the FP parameters per well, per time point, was then generated and used as input to the in-house data management system (SPEcII v.3.4, Unlimit-IT, Geel, Belgium), where descriptive statistics were calculated. Summary values at different time points after compound addition are expressed as percent change from baseline and shown as mean ± standard deviation (SD).
(§5) The nonparametric Wilcoxon-Mann Whitney Test was used to compare the percent change from the baseline (Δ%) value between the group treated with the compound at a given concentration and the group treated with the DMSO at each matching time points. A two-sided test at 5% significance level was considered. […] To assess the physiological relevance of changes, a tolerance interval of DMSO experiments was calculated at each time point, for each parameter. […] TIs indicate an interval where, with a certain confidence level (1- α = 0.95), a specified proportion (p = 0.80) of percent change for DMSO data falls. The lower and upper limits based on the TI values were used as cut-offs for the interpretation of the changes. For the cytotoxicity assays, measurements of fluorescence (after background fluorescence subtraction) from wells treated with the compounds were normalized by the average value of vehicle experiments (DMSO 0.1%) to obtain a DMSO-corrected, delta/delta percent change. Experiments from each condition, as delta/delta percent, were averaged and expressed as mean ± SD. Statistical analysis was performed using a non-parametric test (Kruskal-Wallis) and each treatment condition was compared to the relative DMSO 0.1%. Differences were considered statistically significant when the p-value was smaller than 0.05.

[2] = free therapeutic Cmax in humans; ref FDA-approved drug packages, PharmaPendium; cited from earlier work
[3] = test system: hiPSC-CMs (iCell-Cardiomyocytes^2)
Protocol: as §1, §2, §3
The potential presence of various arrhythmic events was evaluated and noted during the data analysis.
as §4, §5

CC1(C)S[C@@H]2[C@H](NC(=O)[C@H](N)c3ccc(O)cc3)C(=O)N2[C@H]1C(=O)O [Amoxicillin]
Imp (impedance), % change from baseline ([1]; 1 µM, 2h): 2±4% | Imp (impedance), % change from baseline ([1]; 1 µM, 24h): 9±7% | Imp (impedance), % change from baseline ([1]; 1 µM, 48h): -2±4% | Imp (impedance), % change from baseline ([1]; 1 µM, 72h): 4±3 % | Imp (impedance), % change from baseline ([1]; 1 µM, 96h): 0±8% | Imp (impedance), % change from baseline ([1]; 3 µM, 72h): 1±4% | Imp (impedance), % change from baseline ([1]; 3 µM, 96h): -2±6% | Imp (impedance), % change from baseline ([1]; 3 µM, 2h): 2±3% | Imp (impedance), % change from baseline ([1]; 3 µM, 24h): 7±6% | Imp (impedance), % change from baseline ([1]; 3 µM, 48h): -3±6% | Imp (impedance), % change from baseline ([1]; 10 µM, 2h): 2±3% | Imp (impedance), % change from baseline ([1]; 10 µM, 24h): 7±6% | Imp (impedance), % change from baseline ([1]; 10 µM, 48h): -2±3% | Imp (impedance), % change from baseline ([1]; 10 µM, 72h): 1±4% | Imp (impedance), % change from baseline ([1]; 10 µM, 96h): -1±6% | Imp (impedance), % change from baseline ([1]; 30 µM, 2h): 2±3% | Imp (impedance), % change from baseline ([1]; 30 µM, 24h): 2±4% | Imp (impedance), % change from baseline ([1]; 30 µM, 48h): -1±3% | Imp (impedance), % change from baseline ([1]; 30 µM, 72h): -6±4% | Imp (impedance), % change from baseline ([1]; 30 µM, 96h): -4±5% | Free Cmax [2]: 16.1 µM | BR (beating rate), % change from baseline ([3]; 1 µM, 2h): 8±1% | FPD (field-potential duration), % change from baseline ([3]; 1 µM, 2h): -1±2.2% | FPDc (field-potential duration corrected by beat-rate), % change from baseline ([3]; 1 µM, 2h): 1.6±2.2% | BR (beating rate), % change from baseline ([3]; 1 µM, 24h): 16±2% | FPD (field-potential duration), % change from baseline ([3]; 1 µM, 24h): -2.8±1.5% | FPDc (field-potential duration corrected by beat-rate), % change from baseline ([3]; 1 µM, 24h): 2.1±1.1% | BR (beating rate), % change from baseline ([3]; 1 µM, 48h): 3±2% | FPD (field-potential duration), % change from baseline ([3]; 1 µM, 48h): 4.3±3% | FPDc (field-potential duration corrected by beat-rate), % change from baseline ([3]; 1 µM, 48h): 5.3±2.8% | BR (beating rate), % change from baseline ([3]; 1 µM, 72h): -2±3% | FPD (field-potential duration), % change from baseline ([3]; 1 µM, 72h): 8.1±4.8% | FPDc (field-potential duration corrected by beat-rate), % change from baseline ([3]; 1 µM, 72h): 7±3.6% | BR (beating rate), % change from baseline ([3]; 1 µM, 96h): -21±2 % | FPD (field-potential duration), % change from baseline ([3]; 1 µM, 96h): 16.9±3% | FPDc (field-potential duration corrected by beat-rate), % change from baseline ([3]; 1 µM, 96h): 8.1±2% | BR (beating rate), % change from baseline ([3]; 3 µM, 72h): -4±3% | FPD (field-potential duration), % change from baseline ([3]; 3 µM, 72h): 9.6±3.7% | FPDc (field-potential duration corrected by beat-rate), % change from baseline ([3]; 3 µM, 72h): 8.4±2.9% | BR (beating rate), % change from baseline ([3]; 3 µM, 96h): -20±4 % | FPD (field-potential duration), % change from baseline ([3]; 3 µM, 96h): 18.2±7.7% | FPDc (field-potential duration corrected by beat-rate), % change from baseline ([3]; 3 µM, 96h): 9.6±6.7% | BR (beating rate), % change from baseline ([3]; 3 µM, 2h): 8±1% | FPD (field-potential duration), % change from baseline ([3]; 3 µM, 2h): 0.7±2.8% | FPDc (field-potential duration corrected by beat-rate), % change from baseline ([3]; 3 µM, 2h): 3.1±2.9% | BR (beating rate), % change from baseline ([3]; 3 µM, 24h): 16±3% | FPD (field-potential duration), % change from baseline ([3]; 3 µM, 24h): -2.7±2.9% | FPDc (field-potential duration corrected by beat-rate), % change from baseline ([3]; 3 µM, 24h): 2.3±2.9% | BR (beating rate), % change from baseline ([3]; 3 µM, 48h): 2±2% | FPD (field-potential duration), % change from baseline ([3]; 3 µM, 48h): 5.1±3.9% | FPDc (field-potential duration corrected by beat-rate), % change from baseline ([3]; 3 µM, 48h): 5.7±3.9% | BR (beating rate), % change from baseline ([3]; 10 µM, 2h): 8±3% | FPD (field-potential duration), % change from baseline ([3]; 10 µM, 2h): 0.5±3.7% | FPDc (field-potential duration corrected by beat-rate), % change from baseline ([3]; 10 µM, 2h): 3±3.1% | BR (beating rate), % change from baseline ([3]; 10 µM, 24h): 18±6 % | FPD (field-potential duration), % change from baseline ([3]; 10 µM, 24h): -3.1±4.9% | FPDc (field-potential duration corrected by beat-rate), % change from baseline ([3]; 10 µM, 24h): 2.2±3.9% | BR (beating rate), % change from baseline ([3]; 10 µM, 48h): 3±4% | FPD (field-potential duration), % change from baseline ([3]; 10 µM, 48h): 6.6±2.8% | FPDc (field-potential duration corrected by beat-rate), % change from baseline ([3]; 10 µM, 48h): 7.4±2.1% | BR (beating rate), % change from baseline ([3]; 10 µM, 72h): -1±8% | FPD (field-potential duration), % change from baseline ([3]; 10 µM, 72h): 9.6±7.3% | FPDc (field-potential duration corrected by beat-rate), % change from baseline ([3]; 10 µM, 72h): 8.9±4.3% | BR (beating rate), % change from baseline ([3]; 10 µM, 96h): -19±5 % | FPD (field-potential duration), % change from baseline ([3]; 10 µM, 96h): 18.3±5.7% | FPDc (field-potential duration corrected by beat-rate), % change from baseline ([3]; 10 µM, 96h): 10.4±4.4% | BR (beating rate), % change from baseline ([3]; 30 µM, 2h): 5±4% | FPD (field-potential duration), % change from baseline ([3]; 30 µM, 2h): -0.1±3.5% | FPDc (field-potential duration corrected by beat-rate), % change from baseline ([3]; 30 µM, 2h): 1.6±2.8% | BR (beating rate), % change from baseline ([3]; 30 µM, 24h): 15±6% | FPD (field-potential duration), % change from baseline ([3]; 30 µM, 24h): -4.2±3.4% | FPDc (field-potential duration corrected by beat-rate), % change from baseline ([3]; 30 µM, 24h): 0.5±2.7% | BR (beating rate), % change from baseline ([3]; 30 µM, 48h): 1±5% | FPD (field-potential duration), % change from baseline ([3]; 30 µM, 48h): 5.6±1.7% | FPDc (field-potential duration corrected by beat-rate), % change from baseline ([3]; 30 µM, 48h): 6±2.2% | BR (beating rate), % change from baseline ([3]; 30 µM, 72h): -3±8% | FPD (field-potential duration), % change from baseline ([3]; 30 µM, 72h): 8.8±5.4% | FPDc (field-potential duration corrected by beat-rate), % change from baseline ([3]; 30 µM, 72h): 7.7±3.8% | BR (beating rate), % change from baseline ([3]; 30 µM, 96h): -20±4 % | FPD (field-potential duration), % change from baseline ([3]; 30 µM, 96h): 16.4±1.3% | FPDc (field-potential duration corrected by beat-rate), % change from baseline ([3]; 30 µM, 96h): 7.9±2.1%
